From US6518243B1, “Desleucyl glycopeptide antibiotics and methods of making same” (Trustees of Princeton University, priority 1999, dated 2003)

How the values were obtained:
[1] = system: E. faecalis (CL 4877); experiment: Zone of inhibition screen, 96 well agar array format; format: cell-based; design: scale not given here
Summary of the method: (§1)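 Panel screening of every compound against several bacterial strains, among them E. faecium ATCC 49624, was done in a 96-well agar array.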

[2] = system: S. aureus (ATCC 29213); experiment: as above; format: cell-based; design: scale not given here
Summary of the method: as §1

[3] = zone of inhibition relative to 1 mg/ml p-chlorobiphenylvancomycin
[4] = zone of inhibition relative to 1 mg/ml stock solution of p-chlorobiphenylvancomycin

| SMILES | zone score, E. faecalis CL 4877 [1, 3] | zone score, S. aureus ATCC 29213 [2, 3] | zone score, E. faecalis CL 4877 [1, 4] | zone score, S. aureus ATCC 29213 [2, 4] |
| --- | --- | --- | --- | --- |
| CC1OC(OC2C(Oc3c4cc5cc3Oc3ccc(cc3Cl)C(O)C3NC(=O)C(NC(=O)C5NC(=O)C(CC(N)=O)NC(=O)C(NC(=O)CS(=O)(=O)O)C(O)c5ccc(c(Cl)c5)O4)c4ccc(O)c(c4)-c4c(O)cc(O)cc4C(C(=O)O)NC3=O)OC(CO)C(O)C2O)CC(C)(NCc2ccc(-c3ccc(Cl)cc3)cc2)C1O (stereo not shown) [Compound 205] | 2 | 2 | – | – |
| CC(=O)NCCCC(=O)NC1C(=O)NC(CC(N)=O)C(=O)NC2C(=O)NC3C(=O)NC(C(=O)NC(C(=O)O)c4cc(O)cc(O)c4-c4cc3ccc4O)C(O)c3ccc(c(Cl)c3)Oc3cc2cc(c3OC2OC(CO)C(O)C(O)C2OC2CC(C)(NCc3ccc(-c4ccc(Cl)cc4)cc3)C(O)C(C)O2)Oc2ccc(cc2Cl)C1O (stereo not shown) [Compound 107] | – | – | 2 | 2 |
| CC1OC(OC2C(Oc3c4cc5cc3Oc3ccc(cc3Cl)C(O)C(NC(=O)C3(C(N)=O)CC3)C(=O)NC(CC(N)=O)C(=O)NC5C(=O)NC3C(=O)NC(C(=O)NC(C(=O)O)c5cc(O)cc(O)c5-c5cc3ccc5O)C(O)c3ccc(c(Cl)c3)O4)OC(CO)C(O)C2O)CC(C)(NCc2ccc(-c3ccc(Cl)cc3)cc2)C1O (stereo not shown) [Compound 98] | – | – | 2 | 2 |
| CC1OC(OC2C(Oc3c4cc5cc3Oc3ccc(cc3Cl)C(O)C3NC(=O)C(NC(=O)C5NC(=O)C(CC(N)=O)NC(=O)C(NC(=O)C(N)=O)C(O)c5ccc(c(Cl)c5)O4)c4ccc(O)c(c4)-c4c(O)cc(O)cc4C(C(=O)O)NC3=O)OC(CO)C(O)C2O)CC(C)(NCc2ccc(-c3ccc(Cl)cc3)cc2)C1O (stereo not shown) [Compound 200] | – | – | 2 | 2 |
| C=C(C(=O)NC1C(=O)NC(CC(N)=O)C(=O)NC2C(=O)NC3C(=O)NC(C(=O)NC(C(=O)O)c4cc(O)cc(O)c4-c4cc3ccc4O)C(O)c3ccc(c(Cl)c3)Oc3cc2cc(c3OC2OC(CO)C(O)C(O)C2OC2CC(C)(NCc3ccc(-c4ccc(Cl)cc4)cc3)C(O)C(C)O2)Oc2ccc(cc2Cl)C1O)C(F)(F)F (stereo not shown) [Compound 231] | 2 | 2 | – | – |
| CC1OC(OC2C(Oc3c4cc5cc3Oc3ccc(cc3Cl)C(O)C3NC(=O)C(NC(=O)C5NC(=O)C(CC(N)=O)NC(=O)C(NC(=O)CN(CCO)CCO)C(O)c5ccc(c(Cl)c5)O4)c4ccc(O)c(c4)-c4c(O)cc(O)cc4C(C(=O)O)NC3=O)OC(CO)C(O)C2O)CC(C)(NCc2ccc(-c3ccc(Cl)cc3)cc2)C1O (stereo not shown) [Compound 130] | – | – | 2 | 2 |
| CC(NC=O)C(=O)NC1C(=O)NC(CC(N)=O)C(=O)NC2C(=O)NC3C(=O)NC(C(=O)NC(C(=O)O)c4cc(O)cc(O)c4-c4cc3ccc4O)C(O)c3ccc(c(Cl)c3)Oc3cc2cc(c3OC2OC(CO)C(O)C(O)C2OC2CC(C)(NCc3ccc(-c4ccc(Cl)cc4)cc3)C(O)C(C)O2)Oc2ccc(cc2Cl)C1O (stereo not shown) [Compound 194] | – | – | 2 | 2 |
| C[C@H]1O[C@H](O[C@H]2[C@H](Oc3c4cc5cc3Oc3ccc(cc3Cl)[C@@H](O)[C@@H](NC(=O)c3nc(N)n[nH]3)C(=O)N[C@@H](CC(N)=O)C(=O)N[C@H]5C(=O)N[C@H]3C(=O)N[C@H](C(=O)N[C@@H](C(=O)O)c5cc(O)cc(O)c5-c5cc3ccc5O)[C@H](O)c3ccc(c(Cl)c3)O4)O[C@H](CO)[C@@H](O)[C@@H]2O)C[C@@](C)(NCc2ccc(-c3ccc(Cl)cc3)cc2)[C@H]1O [Compound 256] | 2 | 2 | – | – |
| CC(=O)N1CC(O)CC1C(=O)NC1C(=O)NC(CC(N)=O)C(=O)NC2C(=O)NC3C(=O)NC(C(=O)NC(C(=O)O)c4cc(O)cc(O)c4-c4cc3ccc4O)C(O)c3ccc(c(Cl)c3)Oc3cc2cc(c3OC2OC(CO)C(O)C(O)C2OC2CC(C)(NCc3ccc(-c4ccc(Cl)cc4)cc3)C(O)C(C)O2)Oc2ccc(cc2Cl)C1O (stereo not shown) [Compound 121] | – | – | 2 | 2 |
| CC1OC(OC2C(Oc3c4cc5cc3Oc3ccc(cc3Cl)C(O)C3NC(=O)C(NC(=O)C5NC(=O)C(CC(N)=O)NC(=O)C(NC(=O)CCC(NC(=O)OC(C)(C)C)C(N)=O)C(O)c5ccc(c(Cl)c5)O4)c4ccc(O)c(c4)-c4c(O)cc(O)cc4C(C(=O)O)NC3=O)OC(CO)C(O)C2O)CC(C)(NCc2ccc(-c3ccc(Cl)cc3)cc2)C1O (stereo not shown) [Compound 137] | – | – | 2 | 2 |
| CC1OC(OC2C(Oc3c4cc5cc3Oc3ccc(cc3Cl)C(O)C(NC(=O)C(C)(C)NC(N)=O)C(=O)NC(CC(N)=O)C(=O)NC5C(=O)NC3C(=O)NC(C(=O)NC(C(=O)O)c5cc(O)cc(O)c5-c5cc3ccc5O)C(O)c3ccc(c(Cl)c3)O4)OC(CO)C(O)C2O)CC(C)(NCc2ccc(-c3ccc(Cl)cc3)cc2)C1O (stereo not shown) [Compound 190] | – | – | – | 2 |
| CC1OC(OC2C(Oc3c4cc5cc3Oc3ccc(cc3Cl)C(O)C3NC(=O)C(NC(=O)C5NC(=O)C(CC(N)=O)NC(=O)C(NC(=O)CCC(=O)NN(C)C)C(O)c5ccc(c(Cl)c5)O4)c4ccc(O)c(c4)-c4c(O)cc(O)cc4C(C(=O)O)NC3=O)OC(CO)C(O)C2O)CC(C)(NCc2ccc(-c3ccc(Cl)cc3)cc2)C1O (stereo not shown) [Compound 203] | – | – | – | 2 |
| CC(=O)NCCCCC(NC(C)=O)C(=O)NC1C(=O)NC(CC(N)=O)C(=O)NC2C(=O)NC3C(=O)NC(C(=O)NC(C(=O)O)c4cc(O)cc(O)c4-c4cc3ccc4O)C(O)c3ccc(c(Cl)c3)Oc3cc2cc(c3OC2OC(CO)C(O)C(O)C2OC2CC(C)(NCc3ccc(-c4ccc(Cl)cc4)cc3)C(O)C(C)O2)Oc2ccc(cc2Cl)C1O (stereo not shown) [Compound 123] | – | – | – | 2 |
| CC(=O)NC(C)C(=O)NC1C(=O)NC(CC(N)=O)C(=O)NC2C(=O)NC3C(=O)NC(C(=O)NC(C(=O)O)c4cc(O)cc(O)c4-c4cc3ccc4O)C(O)c3ccc(c(Cl)c3)Oc3cc2cc(c3OC2OC(CO)C(O)C(O)C2OC2CC(C)(NCc3ccc(-c4ccc(Cl)cc4)cc3)C(O)C(C)O2)Oc2ccc(cc2Cl)C1O (stereo not shown) [Compound 112] | – | – | – | 2 |
| CC(C)=C(N)C(=O)NC1C(=O)NC(CC(N)=O)C(=O)NC2C(=O)NC3C(=O)NC(C(=O)NC(C(=O)O)c4cc(O)cc(O)c4-c4cc3ccc4O)C(O)c3ccc(c(Cl)c3)Oc3cc2cc(c3OC2OC(CO)C(O)C(O)C2OC2CC(C)(NCc3ccc(-c4ccc(Cl)cc4)cc3)C(O)C(C)O2)Oc2ccc(cc2Cl)C1O (stereo not shown) [Compound 216] | – | 2 | – | – |
| C[C@H]1O[C@H](O[C@H]2[C@H](Oc3c4cc5cc3Oc3ccc(cc3Cl)[C@@H](O)[C@@H](NC(=O)[C@@H](N)Cc3ccc(OC(C)(C)C)cc3)C(=O)N[C@@H](CC(N)=O)C(=O)N[C@H]5C(=O)N[C@H]3C(=O)N[C@H](C(=O)N[C@@H](C(=O)O)c5cc(O)cc(O)c5-c5cc3ccc5O)[C@H](O)c3ccc(c(Cl)c3)O4)O[C@H](CO)[C@@H](O)[C@@H]2O)C[C@@](C)(NCc2ccc(-c3ccc(Cl)cc3)cc2)[C@H]1O [Compound 19] | – | – | – | 2 |
| CC1OC(OC2C(Oc3c4cc5cc3Oc3ccc(cc3Cl)C(O)C3NC(=O)C(NC(=O)C5NC(=O)C(CC(N)=O)NC(=O)C(NC(=O)C(CCS(C)(=O)=O)NC(=O)OC(C)(C)C)C(O)c5ccc(c(Cl)c5)O4)c4ccc(O)c(c4)-c4c(O)cc(O)cc4C(C(=O)O)NC3=O)OC(CO)C(O)C2O)CC(C)(NCc2ccc(-c3ccc(Cl)cc3)cc2)C1O (stereo not shown) [Compound 143] | – | – | – | 2 |
| CC1OC(OC2C(Oc3c4cc5cc3Oc3ccc(cc3Cl)C(O)C(NC(=O)C(F)(F)C(F)(F)C(F)(F)C(F)(F)F)C(=O)NC(CC(N)=O)C(=O)NC5C(=O)NC3C(=O)NC(C(=O)NC(C(=O)O)c5cc(O)cc(O)c5-c5cc3ccc5O)C(O)c3ccc(c(Cl)c3)O4)OC(CO)C(O)C2O)CC(C)(NCc2ccc(-c3ccc(Cl)cc3)cc2)C1O (stereo not shown) [Compound 311] | – | 2 | – | – |
| CC1OC(OC2C(Oc3c4cc5cc3Oc3ccc(cc3Cl)C(O)C3NC(=O)C(NC(=O)C5NC(=O)C(CC(N)=O)NC(=O)C(NC(=O)C(=O)c5ccco5)C(O)c5ccc(c(Cl)c5)O4)c4ccc(O)c(c4)-c4c(O)cc(O)cc4C(C(=O)O)NC3=O)OC(CO)C(O)C2O)CC(C)(NCc2ccc(-c3ccc(Cl)cc3)cc2)C1O (stereo not shown) [Compound 239] | – | 2 | – | – |
| CSCCC(NC=O)C(=O)NC1C(=O)NC(CC(N)=O)C(=O)NC2C(=O)NC3C(=O)NC(C(=O)NC(C(=O)O)c4cc(O)cc(O)c4-c4cc3ccc4O)C(O)c3ccc(c(Cl)c3)Oc3cc2cc(c3OC2OC(CO)C(O)C(O)C2OC2CC(C)(NCc3ccc(-c4ccc(Cl)cc4)cc3)C(O)C(C)O2)Oc2ccc(cc2Cl)C1O (stereo not shown) [Compound 196] | – | – | – | 2 |
| CC1OC(OC2C(Oc3c4cc5cc3Oc3ccc(cc3Cl)C(O)C(NC(=O)C3(N)CC3)C(=O)NC(CC(N)=O)C(=O)NC5C(=O)NC3C(=O)NC(C(=O)NC(C(=O)O)c5cc(O)cc(O)c5-c5cc3ccc5O)C(O)c3ccc(c(Cl)c3)O4)OC(CO)C(O)C2O)CC(C)(NCc2ccc(-c3ccc(Cl)cc3)cc2)C1O (stereo not shown) [Compound 218] | – | 2 | – | – |
| COC(=O)C1=C(C)NC(=O)C1CC(=O)NC1C(=O)NC(CC(N)=O)C(=O)NC2C(=O)NC3C(=O)NC(C(=O)NC(C(=O)O)c4cc(O)cc(O)c4-c4cc3ccc4O)C(O)c3ccc(c(Cl)c3)Oc3cc2cc(c3OC2OC(CO)C(O)C(O)C2OC2CC(C)(NCc3ccc(-c4ccc(Cl)cc4)cc3)C(O)C(C)O2)Oc2ccc(cc2Cl)C1O (mixture of isomers) [Compound 299] | – | 2 | – | – |
| CC1OC(OC2C(Oc3c4cc5cc3Oc3ccc(cc3Cl)C(O)C(NC(=O)C3OC(O)C(O)C3O)C(=O)NC(CC(N)=O)C(=O)NC5C(=O)NC3C(=O)NC(C(=O)NC(C(=O)O)c5cc(O)cc(O)c5-c5cc3ccc5O)C(O)c3ccc(c(Cl)c3)O4)OC(CO)C(O)C2O)CC(C)(NCc2ccc(-c3ccc(Cl)cc3)cc2)C1O (mixture of isomers) [Compound 128] | – | – | – | 2 |
| CC(=O)NC(CC[S+](C)[O-])C(=O)NC1C(=O)NC(CC(N)=O)C(=O)NC2C(=O)NC3C(=O)NC(C(=O)NC(C(=O)O)c4cc(O)cc(O)c4-c4cc3ccc4O)C(O)c3ccc(c(Cl)c3)Oc3cc2cc(c3OC2OC(CO)C(O)C(O)C2OC2CC(C)(NCc3ccc(-c4ccc(Cl)cc4)cc3)C(O)C(C)O2)Oc2ccc(cc2Cl)C1O (stereo not shown) [Compound 124] | – | – | – | 2 |
